# Measurements reported in patent publication US11220482B2, “Aminopyridinemethanol compounds and their use” (UNIVERSITE AMIENS PICARDIE JULES VERNE, priority 2017, dated 2022).
# Read-outs that look alike come from different tables or passages of the source.
# How the values were obtained:
# P. falciparum 3D7 = test: P. falciparum growth inhibition assay, second round (SYBR Green I, ICEstimator); type: cell-based, Plasmodium falciparum; details: Plasmodium falciparum, 3D7, 48 h
# P. falciparum W2 = test: as above; type: cell-based; details: Plasmodium falciparum, 48 h
# [1] = system: P. falciparum D6, W2 and 3D7 strains; details: cited from earlier work
# [2] = system: Plasmodium falciparum 3D7; test: Plasmodium falciparum susceptibility assay, first round (SYBR Green I); type: cell-based; details: 3D7, first round, 48-h incubation, strain susceptible to CQ, decreased susceptibility to MQ, read-out: IC50 (nM) Plasmodium falciparum 3D7 (converted)
# Plasmodium falciparum W2 = test: as above; type: cell-based; details: W2, first round, 48-h incubation, strain resistant to CQ, sensitive to MQ, read-out: IC50 (nM) Plasmodium falciparum W2 (converted)
# CHO-K1 cells [3] = test: In vitro micronucleus assay, short-term exposure
# How it was run: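 Micronuclei were scored in 1000 binucleated cells per well in duplicate wells. Cytostasis came from CBPI over 500 cells. Doses were compared with the negative control by χ2.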
# CHO-K1 cells [4] = details: Chinese hamster, 24 h
# Procedure: All the assays were conducted in duplicate. The CHO-K1 cells, suspended in Mac Coy's 5A medium, were transferred into Labteck wells at a concentration of 100,000 cells/mL, and incubated for 24 hours at 37° C. in CO2 (5%).
# The test was performed without metabolic activation: the test substances were added into cell cultures at concentrations previously defined. […] After 24 hours of incubation at 37° C. in CO2 (5%), the culture medium was removed, the cells were rinsed with phosphate buffered saline (PBS), and then returned in culture medium containing […] of cytochalasine B. After a 24-hour incubation period at 37° C., cells were rinsed with phosphate buffered saline (PBS), fixed with methanol and stained with 10% Giemsa for 20 minutes.
# The analysis of results was performed under a microscope at ×1000 magnification. The antiproliferative activity of test substances was estimated by counting the number of binucleated cells relative to the number of mononucleated cells on a total of 500 cells for each dose (250 cells counted per well). The proliferation index (Cytokinesis Blocked Proliferative Index CBPI) was calculated using the following formula:
# The cytostasis index (CI %), i.e. the percentage of cell replication inhibition, was calculated using the following formula: CI %−100−{100×(CBPItest material−1)/(CBPIsolvent control−1)}
# The rates of micronuclei were evaluated for the presence of independent nuclear core entities in 1000 binucleated cells per well, which corresponds to 2000 cells examined by test substance dose. Micronuclei were identified as small nuclei well differentiated from cell nucleus, stained in the same manner and having a diameter less than one third of that of the cell nucleus.
# Micronuclei rates obtained for different doses of test substances were compared to the negative control by a χ2 test. The assay was considered positive if: • A dose-response relationship was obtained between the rate of micronuclei and the doses tested, • At least one of these doses induced a statistically significant increase (P<0.05) in the number of micronucleated cells as compared to the negative control.
# Salmonella strains = test: Bacterial reverse mutation assay (Ames test), overall conclusion; type: cell-based, S. typhimurium; details: all tested doses, absence or presence of the metabolizing mixture
# Procedure: Five strains of S. typhimurium were used. […] An additional strain has been chosen to detect cross-linking mutagens, hydrazines and oxidative agents: TA102, which have an AT base pair at the primary reversion site. Salmonella tester strains were gifts from Prof. B. N. Ames (Berkeley, Calif., USA). They were stored at −80° C. and regularly checked for genetic markers.
# Few crystals of the frozen working strains were taken with a sterile pipette, and seeded in 10 mL of nutrient broth (NB No 2, Oxoid). Strains were grown overnight at 37° C. with shaking in Nutrient Broth No. 2, with ampicillin (25 μg/mL) for TA1535, TA97a, TA98, and TA 100, or ampicillin (25 μg/mL) plus tetracyclin (2 μg/mL) for TA 102. At the end of the incubation period, 0.1 mL of each overnight culture was mixed to 0.1 mL S9 Mix or 0.1 mL phosphate-buffered saline (PBS, pH 7.4) in 5 mL plastic tubes and various volumes of the tested samples were added to the mixtures. Each experiment included triplicate plates of four tested doses. A solvent (DMSO, 10 μL) control was added to determine the spontaneous frequency of revertants (quadruple plates). Five positive controls were also included to ensure the performance of the tester strains and the S9 Mix. […] After hardening, the plates were incubated at 37° C. for 48 hours.
# At the end of the incubation period, revertants were counted with a laser colony counter equipped with a bacterial enumeration program (Spiral System Instrument Inc., Bethesda, Md., USA).
# The Dunnett test was performed to determine a significant difference between the mean number of induced revertants and the mean number of spontaneous revertants.
# S. typhimurium TA98 = test: Bacterial reverse mutation assay (Ames test)
compound,measurement,setting,value
O[C@@H](CNCCCCCCF)c1ccc(-c2ccc(C(F)(F)F)cc2)nc1C(F)(F)F [Compound 30t],IC50,P. falciparum 3D7,1460 nM
same,IC50,P. falciparum W2,181 nM
O[C@H](CNCCCCCCF)c1ccc(-c2ccc(C(F)(F)F)cc2)nc1C(F)(F)F [Compound 30s],IC50,P. falciparum 3D7,421 nM
same,IC50,P. falciparum W2,97.1 nM
O[C@H](c1cc(C(F)(F)F)nc2c(C(F)(F)F)cccc12)[C@@H]1CCCCN1 [(+)-mefloquine],factor by which more active than the other mefloquine isomer,[1],1.6-1.8
"COC[C@H](Cc1ccccc1)NC[C@@H](O)c1cc(-c2ccc(C(F)(F)F)cc2)nc(C(F)(F)F)c1 [Compound 1i, (S)-2-(((S)-1-Methoxy-3-phenylpropan-2-yl)amino)-1-(2-(trifluoromethyl)-6-(4-(trifluoromethyl)phenyl)pyridin-4-yl)ethanol]",IC50,[2],28.3 ± 1.5 nM
same,IC50,Plasmodium falciparum W2,28.8 ± 3.8 nM
same,in vitro micronucleus assay result (clastogenic and/or aneugenic activities),CHO-K1 cells [3],negative results
same,BI (binucleated cells),CHO-K1 cells [4]; 5 μM,402
same,CBPI (Cytokinesis-Blocked Proliferative Index),CHO-K1 cells [4]; 5 μM,1.81
same,CI % (cytostasis index),CHO-K1 cells [4]; 5 μM,13%
same,MNC1 (micronucleated cell rate),CHO-K1 cells [4]; 5 μM,9 ‰
same,MNC2 (micronucleated cell rate),CHO-K1 cells [4]; 5 μM,11 ‰
same,MNC-M (mean of micronucleated cell rates),CHO-K1 cells [4]; 5 μM,10 ± 1.4 ‰
same,MONO (mononucleated cells),CHO-K1 cells [4]; 5 μM,98
same,BI (binucleated cells),CHO-K1 cells [4]; 10 μM,308
same,CBPI (Cytokinesis-Blocked Proliferative Index),CHO-K1 cells [4]; 10 μM,1.62
same,CI % (cytostasis index),CHO-K1 cells [4]; 10 μM,34%
same,MNC1 (micronucleated cell rate),CHO-K1 cells [4]; 10 μM,10 ‰
same,MNC2 (micronucleated cell rate),CHO-K1 cells [4]; 10 μM,12 ‰
same,MNC-M (mean of micronucleated cell rates),CHO-K1 cells [4]; 10 μM,11 ± 1.4 ‰
same,MONO (mononucleated cells),CHO-K1 cells [4]; 10 μM,192
same,BI (binucleated cells),CHO-K1 cells [4]; 50 μM,214
same,CBPI (Cytokinesis-Blocked Proliferative Index),CHO-K1 cells [4]; 50 μM,1.42
same,CI % (cytostasis index),CHO-K1 cells [4]; 50 μM,57%
same,MNC1 (micronucleated cell rate),CHO-K1 cells [4]; 50 μM,11 ‰
same,MNC2 (micronucleated cell rate),CHO-K1 cells [4]; 50 μM,9 ‰
same,MNC-M (mean of micronucleated cell rates),CHO-K1 cells [4]; 50 μM,10 ± 1.4 ‰
same,MONO (mononucleated cells),CHO-K1 cells [4]; 50 μM,286
same,mutagenic activity in Salmonella strains (revertant rates),Salmonella strains,No significant increase in revertant rates
same,"Number of revertants by plate (Means ± SD), TA1535","S. typhimurium TA1535; with S9 mix, 0.4 μg/plate",23 ± 6^NS
same,"Number of revertants by plate (Means ± SD), TA1535","S. typhimurium TA1535; with S9 mix, 0.6 μg/plate",29 ± 4^NS
same,"Number of revertants by plate (Means ± SD), TA1535","S. typhimurium TA1535; with S9 mix, 0.8 μg/plate",27 ± 5^NS
same,"Number of revertants by plate (Means ± SD), TA1535","S. typhimurium TA1535; with S9 mix, 1 μg/plate",29 ± 9^NS
same,"Number of revertants by plate (Means ± SD), TA1535","S. typhimurium TA1535; without S9 mix, 0.4 μg/plate",22 ± 4^NS
same,"Number of revertants by plate (Means ± SD), TA1535","S. typhimurium TA1535; without S9 mix, 0.6 μg/plate",29 ± 6^NS
same,"Number of revertants by plate (Means ± SD), TA1535","S. typhimurium TA1535; without S9 mix, 0.8 μg/plate",28 ± 5^NS
same,"Number of revertants by plate (Means ± SD), TA1535","S. typhimurium TA1535; without S9 mix, 1 μg/plate",20 ± 4^NS
same,"Number of revertants by plate (Means ± SD), TA97a","S. typhimurium TA97a; with S9 mix, 0.4 μg/plate",132 ± 11^NS
same,"Number of revertants by plate (Means ± SD), TA97a","S. typhimurium TA97a; with S9 mix, 0.6 μg/plate",137 ± 2^NS
same,"Number of revertants by plate (Means ± SD), TA97a","S. typhimurium TA97a; with S9 mix, 0.8 μg/plate",127 ± 9^NS
same,"Number of revertants by plate (Means ± SD), TA97a","S. typhimurium TA97a; with S9 mix, 1 μg/plate",124 ± 4^NS
same,"Number of revertants by plate (Means ± SD), TA97a","S. typhimurium TA97a; without S9 mix, 0.4 μg/plate",153 ± 5^NS
same,"Number of revertants by plate (Means ± SD), TA97a","S. typhimurium TA97a; without S9 mix, 0.6 μg/plate",163 ± 4^NS
same,"Number of revertants by plate (Means ± SD), TA97a","S. typhimurium TA97a; without S9 mix, 0.8 μg/plate",164 ± 5^NS
same,"Number of revertants by plate (Means ± SD), TA97a","S. typhimurium TA97a; without S9 mix, 1 μg/plate",144 ± 11^NS
same,"Number of revertants by plate (Means ± SD), TA100","S. typhimurium TA100; with S9 mix, 0.4 μg/plate",191 ± 11^NS
same,"Number of revertants by plate (Means ± SD), TA100","S. typhimurium TA100; with S9 mix, 0.6 μg/plate",173 ± 10^NS
same,"Number of revertants by plate (Means ± SD), TA100","S. typhimurium TA100; with S9 mix, 0.8 μg/plate",182 ± 10^NS
same,"Number of revertants by plate (Means ± SD), TA100","S. typhimurium TA100; with S9 mix, 1 μg/plate",174 ± 10^NS
same,"Number of revertants by plate (Means ± SD), TA100","S. typhimurium TA100; without S9 mix, 0.4 μg/plate",200 ± 7^NS
same,"Number of revertants by plate (Means ± SD), TA100","S. typhimurium TA100; without S9 mix, 0.6 μg/plate",199 ± 10^NS
same,"Number of revertants by plate (Means ± SD), TA100","S. typhimurium TA100; without S9 mix, 0.8 μg/plate",209 ± 17^NS
same,"Number of revertants by plate (Means ± SD), TA100","S. typhimurium TA100; without S9 mix, 1 μg/plate",205 ± 21^NS
same,"Number of revertants by plate (Means ± SD), TA102","S. typhimurium TA102; with S9 mix, 0.4 μg/plate",351 ± 6^NS
same,"Number of revertants by plate (Means ± SD), TA102","S. typhimurium TA102; with S9 mix, 0.6 μg/plate",355 ± 16^NS
same,"Number of revertants by plate (Means ± SD), TA102","S. typhimurium TA102; with S9 mix, 0.8 μg/plate",376 ± 10^NS
same,"Number of revertants by plate (Means ± SD), TA102","S. typhimurium TA102; with S9 mix, 1 μg/plate",362 ± 4^NS
same,"Number of revertants by plate (Means ± SD), TA102","S. typhimurium TA102; without S9 mix, 0.4 μg/plate",332 ± 19^NS
same,"Number of revertants by plate (Means ± SD), TA102","S. typhimurium TA102; without S9 mix, 0.6 μg/plate",293 ± 4^NS
same,"Number of revertants by plate (Means ± SD), TA102","S. typhimurium TA102; without S9 mix, 0.8 μg/plate",328 ± 14^NS
same,"Number of revertants by plate (Means ± SD), TA102","S. typhimurium TA102; without S9 mix, 1 μg/plate",347 ± 11^NS
same,"Number of revertants by plate (Means ± SD), TA98","S. typhimurium TA98; with S9 mix, 0.4 μg/plate",24 ± 2^NS
same,"Number of revertants by plate (Means ± SD), TA98","S. typhimurium TA98; with S9 mix, 0.6 μg/plate",18 ± 3^NS
same,"Number of revertants by plate (Means ± SD), TA98","S. typhimurium TA98; with S9 mix, 0.8 μg/plate",17 ± 1^NS
same,"Number of revertants by plate (Means ± SD), TA98","S. typhimurium TA98; with S9 mix, 1 μg/plate",20 ± 2^NS
same,"Number of revertants by plate (Means ± SD), TA98","S. typhimurium TA98; without S9 mix, 0.4 μg/plate",32 ± 3^NS
same,"Number of revertants by plate (Means ± SD), TA98","S. typhimurium TA98; without S9 mix, 0.6 μg/plate",33 ± 3^NS
same,"Number of revertants by plate (Means ± SD), TA98","S. typhimurium TA98; without S9 mix, 0.8 μg/plate",33 ± 3^NS
same,"Number of revertants by plate (Means ± SD), TA98","S. typhimurium TA98; without S9 mix, 1 μg/plate",34 ± 7^NS
